In the NIST ThermoML archive (doi:10.1021/acs.jced.6b00916):
Values joined by “and” are separate entries in the source; they are usually repeats but may differ in a detail not shown here. Equal values may be shown once.

Settings: Liquid, Closed cell (Static) method

FC(F)(F)/C=C/Cl [(E)-1-chloro-3,3,3-trifluoroprop-1-ene]
Settings | vapor or sublimation pressure
234.15 K | 7.2 kPa
237.15 K | 8.5 kPa
240.15 K | 10 kPa
243.15 K | 11.7 kPa
246.15 K | 13.7 kPa
249.15 K | 16 kPa
252.15 K | 18.6 kPa
255.15 K | 21.6 kPa
258.15 K | 25 kPa
261.15 K | 28.8 kPa
264.15 K | 33.1 kPa
267.15 K | 38 kPa
270.15 K | 43.4 kPa
273.15 K | 49.4 kPa
276.15 K | 56.1 kPa
279.15 K | 63.6 kPa
282.15 K | 71.7 kPa
285.15 K | 80.7 kPa
288.15 K | 90.6 kPa
291.15 K | 101.7 kPa
293.15 K | 108.8 kPa
294.15 K | 113.6 kPa
295.15 K | 117.2 kPa
297.15 K | 126 kPa and 126.6 kPa and 126.4 kPa
299.15 K | 135.1 kPa
300.15 K | 140.5 kPa
301.15 K | 144.9 kPa
303.15 K | 155.3 kPa and 155.9 kPa
305.15 K | 166.3 kPa
306.15 K | 172.6 kPa
307.15 K | 177.8 kPa
309.15 K | 190.1 kPa and 190.6 kPa
311.15 K | 202.9 kPa
312.15 K | 210 kPa
313.15 K | 216.1 kPa
315.15 K | 230.1 kPa and 230.9 kPa
317.15 K | 245 kPa
318.15 K | 253.5 kPa
319.15 K | 260.7 kPa
321.15 K | 277.1 kPa and 277.7 kPa
323.15 K | 296.3 kPa and 294.3 kPa
324.15 K | 303.6 kPa
325.15 K | 312.2 kPa
327.15 K | 331 kPa and 331.3 kPa
329.15 K | 350.5 kPa
330.15 K | 361 kPa
331.15 K | 371 kPa
333.15 K | 392.5 kPa and 392.6 kPa
335.15 K | 413.9 kPa
336.15 K | 426.2 kPa
337.15 K | 437.2 kPa
339.15 K | 461.2 kPa and 461.9 kPa
341.15 K | 486.3 kPa
342.15 K | 499.8 kPa
343.15 K | 513.2 kPa
345.15 K | 540.4 kPa and 540 kPa
347.15 K | 568.5 kPa
348.15 K | 582.7 kPa
349.15 K | 597.9 kPa
351.15 K | 628.7 kPa and 628.1 kPa
353.15 K | 660.4 kPa
354.15 K | 675.8 kPa
357.15 K | 726.3 kPa
360.15 K | 779.6 kPa
363.15 K | 835.8 kPa
366.15 K | 894.8 kPa
369.15 K | 957.1 kPa
372.15 K | 1022.5 kPa
375.15 K | 1091.3 kPa
